# Test results reported in publication PMC6199744, “Development of Chemical Proteomics for the Folateome and Analysis of the Kinetoplastid Folateome” (ACS Infectious Diseases, 2018).
# Several values for one entry are separate records, joined by “and”; a condition that tells them apart may be missing. Identical values can stand only once. Like-named read-outs stand apart in the source and are kept apart here.
# System: T. brucei lysate proteins
# Format: binding, Trypanosoma brucei
smiles,measurement,setting,value
CCCCCCOc1ccc(Cc2cnc(N)nc2N)cc1 [compound 1],fold change - vehicle control,,0.84 and 0.54 and 0.72 and 0.9 and 0.79
same,fold change - vehicle control,protein RHS6A (CZT00028360.1),0.94
same,fold change - vehicle control,"protein TB09.160.1250 HY[…], CONSERVED",0.85
same,fold change - vehicle control,"protein TB09.160.3670 RIBOSOMAL PROTEIN S6, PUTATIVE",0.92
same,fold change - vehicle control,"protein TB09.211.2630 60S RIBOSOMAL PROTEIN L23, PUTATIVE",1
same,fold change - vehicle control,protein TB09.211.4513 KIN[…] PROTEIN KMP-11,0.73
same,fold change - vehicle control,protein TB11.V4.0005 RIBONUCLEOSIDE-DIPHOSPHATE REDUCTASE SMALL CHAIN,0.92
same,fold change - vehicle control,"protein TB11.01.0870 R[…] A, 51KDA SUBUNIT, PUTATIVE",0.98
same,fold change - vehicle control,"protein TB11.01.2560 40S RIBOSOMAL PROTEIN SA, PUTATIVE",1.02
same,fold change - vehicle control,"protein TB11.01.4880 HY[…], CONSERVED",0.77
same,fold change - vehicle control,"protein TB11.01.7090 HY[…], CONSERVED",0.93
same,fold change - vehicle control,protein TB11.02.2510 GUANINE NUCLEOTIDE-BINDING BETA SUBUNIT-LIKE PROTEIN,0.93
same,fold change - vehicle control,"protein TB11.02.4170 40S RIBOSOMAL PROTEIN S5, PUTATIVE",1.3
same,fold change - vehicle control,protein TB11.03.0250 C[…],1.42
same,fold change - vehicle control,"protein TB11.46.0009 HY[…], CONSERVED",0.95
same,fold change - vehicle control,"protein TB427TMP.01.1475 40S RIBOSOMAL PROTEIN S27, PUTATIVE",0.92
same,fold change - vehicle control,"protein TB427TMP.01.4280 HY[…], CONSERVED",1.08
same,fold change - vehicle control,"protein TB427TMP.01.4650 HY[…], CONSERVED",0.58
same,fold change - vehicle control,"protein TB427TMP.01.4810 HY[…], CONSERVED",0.83
same,fold change - vehicle control,"protein TB427TMP.01.5680 HY[…], CONSERVED",0.33
same,fold change - vehicle control,"protein TB427TMP.01.8390 HY[…], CONSERVED",0.87
same,fold change - vehicle control,"protein TB427TMP.02.0230 HY[…], CONSERVED",1.01
same,fold change - vehicle control,protein TB427TMP.02.0460 NUCLEOPORIN,0.92
same,fold change - vehicle control,protein TB427TMP.02.1106 NUCLEOBASE/NUCLEOSIDE TRANSPORTER 8 1,1.06
same,fold change - vehicle control,"protein TB427TMP.160.2050 ENDO-BETA-N-ACETYLGLUCOSAMINIDASE, PUTATIVE",0.79
same,fold change - vehicle control,protein TB427TMP.160.4310 GLUTAMATE DEHYDROGENASE,1.16
same,fold change - vehicle control,"protein TB427TMP.160.4450 40S RIBOSOMAL PROTEIN S3, PUTATIVE",1
same,fold change - vehicle control,"protein TB427TMP.160.4630 HY[…], CONSERVED",0.8
same,fold change - vehicle control,"protein TB427TMP.160.5200 HY[…], CONSERVED",0.67
same,fold change - vehicle control,"protein TB427TMP.160.5670 HY[…], CONSERVED",0.21
same,fold change - vehicle control,protein TB427TMP.211.0930 POLYADENYLATE-BINDING PROTEIN 1,1.23
same,fold change - vehicle control,"protein TB427TMP.211.1750 MIT[…] PROTEIN, PUTATIVE",0.86
same,fold change - vehicle control,"protein TB427TMP.211.3510 ATP-DEPENDENT DEAD/H RNA HELICASE, PUTATIVE",0.97
same,fold change - vehicle control,"protein TB427TMP.211.4540 RNA-BINDING PROTEIN, PUTATIVE",0.71
same,fold change - vehicle control,"protein TB427TMP.244.2840 HY[…], CONSERVED",0.64
same,fold change - vehicle control,"protein TB427.01.1240 CYTIDINE TR[…], PUTATIVE",0.67
same,fold change - vehicle control,protein TB427.01.2570 COATOMER BETA SUBUNIT,0.88
same,fold change - vehicle control,"protein TB427.01.3910 HY[…], CONSERVED",0.83
same,fold change - vehicle control,protein TB427.02.6240,0.95
same,fold change - vehicle control,"protein TB427.04.3350 HY[…], CONSERVED",1.02
same,fold change - vehicle control,"protein TB427.04.3890 ATP-DEPENDENT RNA HELICASE, PUTATIVE",0.9
same,fold change - vehicle control,"protein TB427.04.4870 AMINO ACID TRANSPORTER, PUTATIVE",0.86
same,fold change - vehicle control,"protein TB427.04.750 50S RIBOSOMAL PROTEIN L7AE, PUTATIVE",0.67
same,fold change - vehicle control,"protein TB427.04.960 HY[…], CONSERVED",0.68
same,fold change - vehicle control,"protein TB427.05.1780 HY[…], CONSERVED",0.66
same,fold change - vehicle control,"protein TB427.05.3030 INTR[…] PROTEIN IFT122, PUTATIVE",0.78
same,fold change - vehicle control,"protein TB427.05.4560 GUANINE DEAMINASE, PUTATIVE",1.07
same,fold change - vehicle control,"protein TB427.06.2150 CELL DIVISION CYCLE PROTEIN 16, PUTATIVE",0.92
same,fold change - vehicle control,"protein TB427.06.3110 PROTEIN KINASE, PUTATIVE (CRK11)",1.03
same,fold change - vehicle control,"protein TB427.06.5110 DAMAGE-SPECIFIC DNA BINDING PROTEIN, PUTATIVE",0.86
same,fold change - vehicle control,"protein TB427.07.2670 HY[…], CONSERVED",0.89
same,fold change - vehicle control,"protein TB427.07.3040 HY[…], CONSERVED",0.9
same,fold change - vehicle control,"protein TB427.07.3530 HY[…], CONSERVED",0.96
same,fold change - vehicle control,"protein TB427.07.4970 GLUTAMINE SYNTHETASE, PUTATIVE",0.89
same,fold change - vehicle control,"protein TB427.07.5560 GLUCOSAMINE-FRUCTOSE-6-PHOSPHATE AMINOTRANSFERASE, PUTATIVE",0.77
same,fold change - vehicle control,"protein TB427.07.5890 HY[…], CONSERVED",0.86
same,fold change - vehicle control,"protein TB427.07.7070 HY[…], CONSERVED",0.72
same,fold change - vehicle control,"protein TB427.07.7460 HY[…], CONSERVED",0.81
same,fold change - vehicle control,"protein TB427.08.1500 HY[…], CONSERVED",0.87
same,fold change - vehicle control,"protein TB427.08.1840 HY[…], CONSERVED",1.24
same,fold change - vehicle control,"protein TB427.08.1960 HY[…], CONSERVED",0.78
same,fold change - vehicle control,"protein TB427.08.2080 HY[…], CONSERVED",0.67
same,fold change - vehicle control,"protein TB427.08.3750 NUCLEOLAR PROTEIN, PUTATIVE",0.89
same,fold change - vehicle control,"protein TB427.08.6390 LYSOPHOSPHOLIPASE, PUTATIVE",0.97
same,fold change - vehicle control,"protein TB427.10.10610 PROTEIN TYROSINE PHOSPHATASE, PUTATIVE",0.62
same,fold change - vehicle control,"protein TB427.10.1100 60S RIBOSOMAL PROTEIN L9, PUTATIVE",1.06
same,fold change - vehicle control,protein TB427.10.12740,0.9
same,fold change - vehicle control,"protein TB427.10.14660 HY[…], CONSERVED",0.83
same,fold change - vehicle control,protein TB427.10.15720 […]-ATP-ASE SUBUNIT 9,0.9
same,fold change - vehicle control,protein TB427.10.2440 METACASPASE MCA4,0.84
same,fold change - vehicle control,"protein TB427.10.2900 IMPORTIN BETA-1 SUBUNIT, PUTATIVE",0.68
same,fold change - vehicle control,"protein TB427.10.3470 HY[…], CONSERVED",0.78
same,fold change - vehicle control,protein TB427.10.4110 60S RIBOSOMAL PROTEIN L30,0.82
same,fold change - vehicle control,"protein TB427.10.4610 […]-MANNOSE SYNTHASE, PUTATIVE",0.82
same,fold change - vehicle control,"protein TB427.10.5250 HY[…], CONSERVED",0.86
same,fold change - vehicle control,"protein TB427.10.7410 SUCCINYL-COA LIGASE GDP-FORMING] BETA-CHAIN, PUTATIVE",0.9
same,fold change - vehicle control,protein TB927.10.12960 RAS-RELATED PROTEIN RAB-5,0.82
same,fold change - vehicle control,"protein TB927.10.14800 PROTEIN KINASE, PUTATIVE",1.18
same,fold change - vehicle control,protein TB927.10.2980 […]-ATPASE SUBUNIT 11,0.83
same,fold change - vehicle control,protein TB927.10.3660 ASPARTATE AMINOTRANSFERASE,1.14
same,fold change - vehicle control,protein TB927.10.4570 […] 2,0.72
same,fold change - vehicle control,"protein TB927.10.5140 PROTEIN KINASE, PUTATIVE",0.83
same,fold change - vehicle control,"protein TB927.10.560 40S RIBOSOMAL PROTEINS S11, PUTATIVE",0.94
same,fold change - vehicle control,"protein TB927.10.6510 CHAPERONIN HSP60, MIT[…]",0.87
same,fold change - vehicle control,"protein TB927.3.1840 3-OXO-5-ALPHA-STEROID 4-DEHYDROGENASE, PUTATIVE",1
same,fold change - vehicle control,protein TB927.3.3780 TRYPAREDOXIN,0.82
same,fold change - vehicle control,"protein TB927.3.740 HY[…], CONSERVED",0.83
same,fold change - vehicle control,"protein TB927.4.2740 HY[…], CONSERVED",0.74
same,fold change - vehicle control,"protein TB927.4.3590 T[…] 1-BETA, PUTATIVE",0.85
same,fold change - vehicle control,"protein TB927.6.4320 HY[…], CONSERVED",0.84
same,fold change - vehicle control,protein TB927.7.2550 […] SUBUNIT 5,0.7
same,fold change - vehicle control,"protein TB927.7.2980 HY[…], CONSERVED",0.84
same,fold change - vehicle control,"protein TB927.7.7430 ATP SYNTHASE ALPHA CHAIN, MIT[…]",0.73
same,fold change - vehicle control,protein TB927.8.1990 PEROXIDOXIN,0.74
same,fold change - vehicle control,"protein TB927.8.4720 AMINO ACID TRANSPORTER, PUTATIVE",1.08
same,fold change - vehicle control,"protein TB927.8.890 SMALL GTP-BINDING PROTEIN RAB1, PUTATIVE",0.93
